pEC50, pKi: −log10 of the molar value. Where two headings read alike, the source gives them in different places.
How the values were obtained:
5-HT2C receptor [1] = biological target: T1, 5-HT2C receptor (Homo sapiens, UniProt P28335); assay: Binding to the 5-HT2C receptor, Method (a), [3H]-5-HT; design: expressed in transfected cells; host or cells: CHO cell line
T1 sequence (P28335 33-458): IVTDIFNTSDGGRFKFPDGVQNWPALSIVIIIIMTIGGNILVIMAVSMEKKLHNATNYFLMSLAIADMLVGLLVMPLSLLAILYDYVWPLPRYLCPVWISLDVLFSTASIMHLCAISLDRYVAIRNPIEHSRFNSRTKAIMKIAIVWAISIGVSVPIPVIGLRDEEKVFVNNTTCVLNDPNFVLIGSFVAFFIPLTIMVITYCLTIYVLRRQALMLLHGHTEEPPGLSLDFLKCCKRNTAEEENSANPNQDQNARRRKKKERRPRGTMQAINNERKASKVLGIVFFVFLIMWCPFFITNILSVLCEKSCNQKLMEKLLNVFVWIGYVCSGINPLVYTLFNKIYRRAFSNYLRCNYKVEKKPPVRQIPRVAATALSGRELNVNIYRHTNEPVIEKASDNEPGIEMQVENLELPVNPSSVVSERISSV
Protocol: (§1) The binding of compounds of formula (I) to serotonin receptors was determined in vitro by standard methods. The preparations were investigated in accordance with the assays given hereinafter.
Method (a): For the binding to the 5-HT2C receptor the 5-HT2C receptors were radiolabeled with [^3H]-5-HT. The affinity of the compounds for 5-HT2C receptors in a CHO cell line was determined according to the procedure of D. Hoyer, G. Engel and H. O. Kalkman, European J. Pharmacol., 1985, 118, 13-23.
(§2) The Ki values are calculated according to the method of Cheng, Yung-Chi, and Prusoff, W. H. Biochem. Pharmacol. 1973, 22(23) 3099-108.

[2] = Pharmacodynamic study: food intake up to 16 hours after compound administration; format: in vivo, rats; conditions: 30 mg/kg p.o.
Protocol: The in vivo activity of compounds of formula (I) was assayed for ability to regulate feeding behaviour during a time period up to 16 hours after compound administration.
The test compound was assessed following acute administration. Each study utilised a between-subjects design (typically n=8) and compared the effects of a single dose of the test agent to those of vehicle.
Example 1 was administered at a dose of 30 mg/kg p.o. in a distilled water vehicle 2, 4, 8, or 16 hours prior to food presentation. At the time of food presentation (standard laboratory chow) all animals had been subjected to a 23-hour food deprivation period. Water was freely available throughout the study. The amount of food consumed over 1 hour was determined. Food intake data were subjected to two-way analysis of variance (ANOVA) with drug treatment as a between-subjects factor and injection-test-interval as a between subjects factor. Newman-Keuls tests were performed to assess whether differences between the vehicle mean and the drug-treated mean at each level of injection-test-interval were significant. All statistical analyses were performed using Statistica Software, Version 5.0 (Statsoft Inc.) and Microsoft Excel 7.0 (Microsoft Corp.).

human 5-HT2B receptors = biological target: T2, human 5-HT2B receptors (Homo sapiens, UniProt P41595); assay: Binding to the 5-HT2B receptor, Method (b), [3H]-5-HT
T2 construct: expressed in transfected cells; host or cells: CHO cell line
Protocol: as §1
Method (b): For the binding to the 5-HT2B receptor the 5-HT2B receptors were radiolabeled with [^3H]-5-HT. The affinity of the compounds for human 5-HT2B receptors in a CHO cell line was determined according to the procedure of K. Schmuck, C. Ullmer, P. Engels and H. Lubbert, FEBS Lett., 1994, 342, 85-90.
as §2

5-HT2A receptor [3] = biological target: T3, 5-HT2A receptor (Homo sapiens, UniProt P28223); assay: Functional activity, FLIPR calcium assay, CHO cells expressing human 5-HT2A; format: cell-based; design: expressed in transfected cells; host or cells: CHO cells
Protocol: (§3) The functional activity of compounds of formula (I) was assayed using a Fluorimetric Imaging Plate reader (FLIPR). CHO cells expressing the human 5-HT2C or human 5-HT2A receptors were counted and plated into standard 96 well microtitre plates on the day before testing to give a confluent monolayer. The cells were then dye loaded with the calcium sensitive dye, Fluo-3-AM. Unincorporated dye was removed using an automated cell washer to leave a total volume of 100 μL/well of assay buffer (Hanks balanced salt solution containing 20 mM Hepes and 2.5 mM probenecid). The drug (dissolved in 50 μL of the assay buffer) was added at a rate of 70 μL/sec to each well of the FLIPR 96 well plate during fluorescence measurements. The measurements were taken at 1 sec intervals and the maximum fluorescent signal was measured (approx 10-15 secs after drug addition) and compared with the response produced by 10 μM 5-HT (defined as 100%) to which it was expressed as a percentage response (relative efficacy). Dose response curves were constructed using Graphpad Prism (Graph Software Inc.).

5-HT2A receptor [4] = biological target: T3, 5-HT2A receptor; assay: Binding to the 5-HT2A receptor, Method (c), [125I]-DOI; design: expressed in transfected cells; host or cells: CHO cell line
Protocol: as §1
Method (c): For the binding to the 5-HT2A receptor the 5-HT2A receptors were radiolabeled with [^125I]-DOI. The affinity of the compounds for 5-HT2A receptors in a CHO cell line was determined according to the procedure of D. J. McKenna and S. J. Peroutka, J. Neurosci., 1989, 9, 3482-90.
as §2

5-HT2C receptor [5] = biological target: T1, 5-HT2C receptor; assay: Functional activity, FLIPR calcium assay, CHO cells expressing human 5-HT2C; format: cell-based; design: expressed in transfected cells; host or cells: CHO cells; conditions: for h5-HT2c Relative Efficacy: relative to response of 10 μM 5-HT (100%)
Protocol: as §3

[6] = literature, cited from earlier work
[7] = literature; cited from earlier work

T3 sequence (P28223 whole entry): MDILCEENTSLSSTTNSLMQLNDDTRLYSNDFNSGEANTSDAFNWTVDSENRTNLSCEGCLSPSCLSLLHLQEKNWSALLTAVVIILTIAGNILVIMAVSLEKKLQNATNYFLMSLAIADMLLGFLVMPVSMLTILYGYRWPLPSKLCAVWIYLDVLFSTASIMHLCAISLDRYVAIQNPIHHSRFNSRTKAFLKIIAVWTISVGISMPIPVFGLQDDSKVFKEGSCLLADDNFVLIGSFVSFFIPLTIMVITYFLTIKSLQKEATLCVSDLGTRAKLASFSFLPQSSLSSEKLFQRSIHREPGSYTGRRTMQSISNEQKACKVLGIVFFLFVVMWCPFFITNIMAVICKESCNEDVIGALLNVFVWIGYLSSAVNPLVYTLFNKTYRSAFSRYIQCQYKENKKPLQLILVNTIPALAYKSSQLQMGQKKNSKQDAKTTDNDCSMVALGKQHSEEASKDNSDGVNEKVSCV
T2 sequence (P41595 whole entry): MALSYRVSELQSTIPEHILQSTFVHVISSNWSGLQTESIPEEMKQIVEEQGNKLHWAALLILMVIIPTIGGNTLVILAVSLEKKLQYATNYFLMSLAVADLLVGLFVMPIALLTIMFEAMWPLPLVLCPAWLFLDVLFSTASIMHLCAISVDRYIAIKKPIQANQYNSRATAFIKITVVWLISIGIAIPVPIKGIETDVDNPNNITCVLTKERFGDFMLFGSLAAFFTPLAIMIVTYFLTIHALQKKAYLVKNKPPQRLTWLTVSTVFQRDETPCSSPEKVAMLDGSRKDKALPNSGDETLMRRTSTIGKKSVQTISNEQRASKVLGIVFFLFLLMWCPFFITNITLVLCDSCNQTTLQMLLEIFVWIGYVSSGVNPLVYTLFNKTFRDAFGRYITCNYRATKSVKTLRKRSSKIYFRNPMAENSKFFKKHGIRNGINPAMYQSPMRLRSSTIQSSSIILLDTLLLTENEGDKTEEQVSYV

## COCCCCOc1ccc2c(c1)c(C[C@H](C)N)c1n2CCC1.Cl
other
  melting point: 107 °C

## CCOCCOc1ccc2c(c1)c(C[C@H](C)N)c1n2CCC1.Cl
other
  melting point: 170 to 172 °C

## CCOCCCOc1ccc2c(c1)c(C[C@H](C)N)c1n2CCC1.Cl
other
  melting point: 132 °C

## CCOc1ccc2c(c1)c(C[C@H](C)N)c1n2CCC1 [Example 1, (S)-2-(6-ethoxy-2,3-dihydro-1H-3a-aza-cyclopenta[a]inden-8-yl)-1-methyl-ethylamine]
5-HT2C receptor [1]; Method (a), [3H]-5-HT, CHO cell line, Ki by Cheng-Prusoff, read-out: Ki (2C)
  pKi: 7.96
[2]
  duration of action in reducing rat food intake: at least 16 hours
Human 5-HT2B receptors
  pKi: 6.08
5-HT2A receptor [3]; relative to response of 10 μM 5-HT (100%)
  h5-HT2A Relative Efficacy: 33%
5-HT2A receptor [4]
  pKi: 6.39
5-HT2C receptor [5]
  h5-HT2c Relative Efficacy: 87%

## COCCOc1ccc2c(c1)c(C[C@H](C)N)c1n2CCC1 [Example 2, (S)-2-[6-(2-methoxy-ethoxy)-2,3-dihydro-1H-3a-aza-cyclopenta[a]inden-8-yl]-1-methyl-ethyl amine]
5-HT2C receptor [1]
  pKi: 7.72
Human 5-HT2B receptors; Method (b), [3H]-5-HT, human 5-HT2B in CHO cell line, Ki by Cheng-Prusoff, read-out: Ki (2B)
  pKi: 6.32
5-HT2A receptor [4]; Method (c), [125I]-DOI, CHO cell line, Ki by Cheng-Prusoff, read-out: Ki (2A)
  pKi: 6.28

## C[C@H](N)Cc1c2n(c3ccc(OC4CC4)cc13)CCC2 [Example 3, (S)-2-(6-cyclopropoxy-2,3-dihydro-1H-3a-aza-cyclopenta[a]inden-8-yl)-1-methyl-ethylamine]
5-HT2A receptor [3]; FLIPR, CHO cells, read-out: h5-HT2A EC50
  pEC50: < 6.00
5-HT2C receptor [5]; FLIPR, CHO cells, read-out: h5-HT2c EC50
  pEC50: 8.52
5-HT2C receptor [5]
  h5-HT2c Relative Efficacy: 84%

## Clc1cccc(N2CCNCC2)c1 [mCPP, m-chlorophenylpiperazine]
[6]; single dose
  food intake in female volunteers: decreased food intake
[6]; subchronic treatment for a 14 day period
  appetite and body weight of obese male and female subjects: decreased the appetite and body weight
[7]
  behavioural satiety sequence: accelerate the appearance of the behavioural satiety sequence
  food intake in rats: reduce food intake
